Paper PMC9486808 (ACS Chemical Biology, 2022)
Entries after “also recorded” stand apart in the source; their conditions may differ. Like-named read-outs stand apart in the source and are kept apart here. Positions of bridges follow the written chain, without caps; N, C: chain ends. Non-standard residues stand in square brackets, D forms with d. Residues, ends and D or L forms follow the SMILES beside them.

Tests used:
H1 ectodomain [1] = target: T1, H1 ectodomain (Influenza A virus, UniProt C3W5S1); assay: biochemical; format: binding, Influenza A virus A/California/04/2009 (H1N1); conditions: read-out: Kd1
[2] = tested on: H1N1pdm09 (A/Netherlands/602/2009); format: cell-based, Influenza A virus
H1 ectodomain [3] = target: T1, H1 ectodomain; assay: biochemical; format: binding, Influenza A virus A/California/04/2009 (H1N1)
H1 HA = H1 HA (Influenza A virus, UniProt C3W5S1); format: binding, Influenza A virus A/California/04/2009 (H1N1)
H3 ectodomain = format: binding, Influenza A virus A/Fujian/411/2002 (H3N2); conditions: for Kd: read-out: Kd1
[4] = target: H1 ectodomain of A/California/04/2009 (H1N1) (Influenza A virus, UniProt C3W5S1); format: binding, Influenza A virus A/California/04/2009 (H1N1)
H1stem = format: binding, Influenza A virus A/Kentucky/UR06-0258/2007 (H1N1); conditions: read-out: Kd1
[5] = tested on: H3N1 virus carrying H3 HA of A/Bilthoven/1761/76 (H3N2) in the H1N1pr8 background; format: cell-based, Influenza A virus
in vitro = conditions: HeLa R19 cells and MDCKI cells
[6] = tested on: H1N1pr8 (A/PR8/8/34/Mount Sinai); format: cell-based, Influenza A virus
[7] = tested on: H5N1 virus carrying H5 HA of A/duck/Hunan/795/2002 in the H1N1pr8 genetic background; conditions: 16 h
[8] = tested on: H1N1pdm09 (A/Netherlands/602/2009); conditions: for IC50: 16 h
[9] = target: full-length H1 of A/California/04/2009 (H1N1) (Influenza A virus, UniProt C3W5S1); format: cell-based, Influenza A virus A/California/04/2009 (H1N1); conditions: pH 5
H1N1pdm09 = tested on: H1N1pdm09; parameters: species or system Influenza A virus
[10] = tested on: H5N1 virus carrying H5 HA of A/duck/Hunan/795/2002 in the H1N1pr8 genetic background; format: cell-based, Influenza A virus

For `CC(C)[C@@H]1NC(=O)[C@H](Cc2c[nH]c3ccccc23)NC(=O)[C@H](CCCNC(=N)N)NC(=O)[C@H](Cc2ccc(O)cc2)NC(=O)CSC[C@@H](C(=O)NCC(N)=O)NC(=O)[C@H](C(C)C)NC(=O)[C@H](C(C)C)NC(=O)[C@H](Cc2ccccc2)NC(=O)[C@H](Cc2ccc(O)cc2)NC(=O)[C@@H]2CCCN2C(=O)[C@H](CCC(=O)O)NC(=O)[C@H](CO)NC(=O)[C@H](Cc2ccccc2)NC(=O)[C@H](Cc2ccccc2)NC(=O)[C@H](CO)NC(=O)[C@H]([C@@H](C)O)NC(=O)[C@H](Cc2c[nH]c3ccccc23)NC1=O` [L4] ({CH2CO}-YRWVWTSFFSEPYFVVCG-NH2; thioether N-17), the Kd (H1 ectodomain [1]) was 20.8 ± 1.4 nM, the “Inhibition of infection (infected cells relative to untreated control)” value [2] was “strongly inhibited infection” and the Kd (H1 ectodomain [3]) was at most 1 nM. The ΔTm (°C), purified peptide (H1 HA) was 3.4 °C, the “Peptide binding by SPR (in words)” value (H3 ectodomain) was “no binding was observed” and the Kd (H3 ectodomain) was over 50 nM. The “Binding region in the HA stem (HDX-MS)” value [4] was “aa 369–387”, the Kd (H1stem) was 2.6 ± 0.1 nM and the “Inhibition of infection (infected cells relative to untreated control)” value [5] was “fell short of inhibiting”. The CC50 at 72 h (in vitro) was over 5000 nM, the “Inhibition of infection (infected cells relative to untreated control)” value [6] was “strongly inhibited infection” and the IC50 [7] was 234 ± 66 nM. For the same molecule, the “Inhibition of infection at a single concentration” value [8] was “strong inhibition of infection” and the IC50 [8] was 104 ± 10.3 nM.
In the case of `CC[C@H](C)[C@@H]1NC(=O)[C@H](CCCCN)NC(=O)[C@H](CO)NC(=O)[C@H](Cc2c[nH]c3ccccc23)NC(=O)[C@H](Cc2ccc(O)cc2)NC(=O)[C@H]([C@@H](C)CC)NC(=O)[C@H](CCCCN)NC(=O)[C@H](CC(C)C)NC(=O)[C@@H](Cc2ccc(O)cc2)NC(=O)CSC[C@@H](C(=O)NCC(N)=O)NC(=O)[C@H](Cc2c[nH]c3ccccc23)NC(=O)[C@H](CCC(=O)O)NC(=O)[C@H](CO)NC(=O)[C@H](C(C)C)NC(=O)[C@H](CC(C)C)NC(=O)CNC(=O)[C@H](Cc2c[nH]cn2)NC1=O` [S3] ({CH2CO}-[dY]LKIYWSKIHGLVSEWCG-NH2; thioether N-17), the Kd (H1 ectodomain [1]) is reported as 16.8 ± 0.6 nM, the “Inhibition of infection (infected cells relative to untreated control)” value [2] is reported as “strongly inhibited infection” and the Kd (H1 ectodomain [3]) is reported as at most 1 nM. The “ΔTm (°C), crude peptide” value (H1 HA) was 3.8 °C, the “ΔTm (°C), purified peptide” value (H1 HA) was 4.2 °C and the “Peptide binding by SPR (in words)” value (H3 ectodomain) was “no binding was observed”. The Kd (H3 ectodomain) was over 50 nM, the “Binding region in the HA stem (HDX-MS)” value [4] was “aa 369–387” and the Kd (H1stem) was 37.2 ± 18.8 nM. The “Inhibition of infection (infected cells relative to untreated control)” value [5] was “fell short of inhibiting”, the CC50 at 72 h (in vitro) was over 5000 nM and the “Inhibition of infection (infected cells relative to untreated control)” value [6] was “strongly inhibited infection”. For the same molecule, the IC50 [7] was 17.5 ± 1.7 nM, the “Inhibition of infection at a single concentration” value [8] was “strong inhibition of infection” and the IC50 [8] was 47.5 ± 7.1 nM.
For `CC(C)C[C@@H]1NC(=O)[C@H](C(C)C)NC(=O)[C@@H](Cc2ccc(O)cc2)NC(=O)CSC[C@@H](C(=O)NCC(N)=O)NC(=O)[C@H](C(C)C)NC(=O)[C@H](Cc2c[nH]c3ccccc23)NC(=O)[C@H](Cc2c[nH]cn2)NC(=O)[C@H]([C@@H](C)O)NC(=O)[C@H](C)NC(=O)[C@H](CC(C)C)NC(=O)[C@H]([C@@H](C)O)NC(=O)CNC(=O)[C@H](Cc2c[nH]cn2)NC(=O)[C@H](CC(=O)O)NC(=O)[C@H](Cc2c[nH]c3ccccc23)NC(=O)[C@H](CCCNC(=N)N)NC(=O)[C@H](Cc2ccccc2)NC1=O` [S5] ({CH2CO}-[dY]VLFRWDHGTLATHWVCG-NH2; thioether N-17), the Kd (H1 ectodomain [1]) was 8.6 ± 1.1 nM, the “Syncytia formation (cell-cell fusion)” value [9] was “greatly reduced; also recorded: inhibits fusion between H1 expressing cells” and the “Inhibition of infection (infected cells relative to untreated control)” value [2] was “strongly inhibited infection”. For the same molecule, the Kd (H1 ectodomain [3]) was at most 1 nM, the “ΔTm (°C), crude peptide” value (H1 HA) was 4.8 °C and the “ΔTm (°C), purified peptide” value (H1 HA) was 7.8 °C. The “Peptide binding by SPR (in words)” value (H3 ectodomain) was “no binding was observed”, the Kd (H3 ectodomain) was over 50 nM and the “Binding region in the HA stem (HDX-MS)” value [4] was “aa 369–387”. The Kd (H1stem) was 11.3 ± 2.5 nM, the “Inhibition of infection (infected cells relative to untreated control)” value [5] was “fell short of inhibiting” and the “Interference of the peptide itself with hemagglutination” value (H1N1pdm09) was “does not interfere with hemagglutination”. The “Loss of hemagglutination after pH 5 incubation” value (H1N1pdm09; pH 5) was “prevented by S5”, the CC50 at 72 h (in vitro) was over 5000 nM and the “Inhibition of infection (infected cells relative to untreated control)” value [6] was “strongly inhibited infection”. For the same molecule, the “Inhibition of infection at a single concentration” value [8] was “strong inhibition of infection”, the “Neutralizing activity in the presence of serum proteins” value [8] was “unaffected by the addition of serum proteins” and the “Inhibition of infection (infected cells relative to untreated control)” value [10] was “cross-neutralization was observed”.
